Read-outs that look alike come from different tables or passages of the source.
Columns and labels:
[1] = tested on: 4175-Luc+ tumors; experiment: Tumor growth inhibition; assay type: in vivo, mouse; conditions: 5-day i.p. regimen from day 3 after inoculation; MN58b 2 mg/kg/day, JAS239 4 mg/kg/day
Procedure: All animal studies were approved by the Institutional Animal Care and Use Committee of the University of Pennsylvania. Six week old female athymic nude Foxn1^nu/nu mice (National Cancer Institute) were housed in a temperature-controlled environment with 12 h light/dark cycle. Anesthesia was induced using 2% isoflurane in oxygen for all experiments. For MCF7 tumors, mice were supplemented with 60-day release 0.36 mg 17β-estradiol tablets (Innovative Research of America) using a trochar in the nape of the neck. After 1 week, 4 × 10^6 cells in Matrigel (BD Biosciences) were inoculated into the left (CK+) and contralateral (EV) mammary fat pads. Subcutaneous xenografts, including those analyzed in MRI/MRS studies, were grown on the shoulder to allow for cloaking of the kidneys during optical imaging studies. Tumor growth was determined via caliper measurement of three orthogonal dimensions and volume calculated as length * width * height * π/6.
A cohort of 15 mice was inoculated with 4175-Luc+ tumors. Beginning 3 days post-inoculation, animals received a 100-μL i.p. injection of either control DMSO/saline, 2 mg/kg MN58b or 4 mg/kg JAS239 in DMSO/saline daily for 5 days. Tumor volumes were assessed by caliper measurement.

[2] = tested on: MDA-MB-231 tumors; experiment: Pharmacodynamic indicators of ChoKα inhibition (MRI/MRS); assay type: in vivo, mouse; conditions: 5 days i.p., MN58b 2 mg/kg, JAS239 4 mg/kg; for Change in tumor tCho compared to control (MRS) / Tumor volume between pre- and post-treatment scans (MRI): day 7; for PUFA resonances (measure of tumor apoptosis): trend not significant
Procedure: Mice bearing subcutaneous 4175-Luc+ or MB-MDA-231 tumors (∼300 μL) underwent pre-treatment MRS scans in a 9.4 T horizontal bore magnet equipped with 40 G/cm gradients interfaced to an Agilent Direct-Drive console (Agilent) operating vnmrj 2.3.C software. Multi-slice gradient and spin echo images were used for tumor localization. T2-weighted spin echo anatomical images were acquired using a spin echo multi-slice (SEMS) pulse sequence (TR = 1000 ms, TE = 10 ms, number of slices = 20, field of view = 20 × 20 mm^2, slice thickness = 1 mm, NT = 1, matrix size = 256 × 128) and used for voxel selection. A single voxel ^1H PRESS spectrum was acquired in a 3×3x3 mm^3 voxel (TR = 3000 ms, TE1 = 12.68 ms and TE2 = 10.01 ms, number of averages = 128, complex points = 4096, spectral width = 4000 Hz and acquisition time of 6 min 24 sec). Water suppression was achieved using the VAPOR sequence. An unsuppressed water spectrum was acquired (8 averages) as a chemical shift and concentration reference. One week following initiation of treatment, ^1H MR spectra were acquired again. Spectra were processed using Mnova Lite 5.2.5 software (Mestrelab Research). Free induction decays were processed by 10 Hz apodization followed by Fourier transformation. Spectra were phased and chemical shift and baseline correction performed prior to fitting of the water (4.7 ppm), tCho (3.2 ppm), PUFA (2.8 ppm), and lipid (1.3 ppm) resonances. The metabolite/water ratio was determined and the percent change was determined as [post-treatment ratio – pre-treatment ratio] *100%/pre-treatment ratio.
(§1) A cohort of 15 mice was inoculated with MDA-MB-231 cells. When a volume of 300 μL was reached, tumors were scanned using MRS. Tumor volumes were measured using T2-weighted images. The animals were separated into treatment groups, and for 5 consecutive days each group was injected i.p. with 100 μL of DMSO/saline vehicle (n = 5), 2 mg/kg MN58b (n = 4), or 4 mg/kg JAS239 (n = 3). Initial cohort sizes were 5 per condition, but some animals had to be removed from the study because the treatment was so effective that we were unable to place voxels within post-treatment tumors that were too small. Follow-up MRI/MRS scanning was performed on day 7 to assess tumor growth inhibition and changes in metabolite levels. After imaging, blood was collected into heparin-coated tubes by cardiac puncture. Resected tumors were embedded in Optimum Cryo-Temperature (Sakura Finetek), flash-frozen in liquid nitrogen, and stored at –80 °C. Blood samples were submitted to the Ryan Veterinary Clinic Diagnostic labs for toxicology.

[3] = tested on: MDA-MB-231 tumors; experiment: Histopathology of treated tumors (H&E, Ki67, caspase-3); assay type: in vivo, mouse; conditions: 5 days i.p.; MN58b 2 mg/kg, JAS239 4 mg/kg; vs control
Procedure: as §1
Hematoxylin and eosin staining and immunohistochemistry was performed as described previously. Caspase-3 (R&D Systems AF835) and Ki67 (Abcam ab16667) antibody staining was performed on a Bond Max automated staining system (Leica Microsystems) using the Bond Intense R staining kit (Leica Microsystems DS9263). An Aperio Scan Scope OS (Aperio Technology) was used to scan slides, and the Image Scope nuclear staining algorithm (version 9; Aperio Technology) was used to quantify Ki67 and caspase-3 positive nuclei in representative regions of each slide.

[4] = biological target: ChoKα (Homo sapiens, UniProt P35790); experiment: ChoKα activity assay (14C-choline phosphorylation to 14C-PC in cells); assay type: cell-based; parameters: endogenous in cells; host or cells: MCF7-EV, MCF7-CK+ (stably overexpressing ChoK), MDA-MB-231, 4175-Luc+; conditions: analyzed after 2 h, ± SEM, 3 experiments, read-out: IC50 (14C-PC production)
Procedure: Cells in 6-well plates (1.0 × 10^6 cells/well) were incubated for 24 h then treated with JAS239 or MN58b. After 1 h, cells were spiked for 1 h with 0.5 μCi/mL [methyl-^14C]-choline (PerkinElmer) and fixed with trichloroacetic acid. Aqueous cellular extracts were separated by thin layer chromatography (TLC) and the ^14C-PC production measured by autoradiography on a Fujifilm FLA-7000 using previously described methods. […]
Supplementary Figure 1: Characterization of ChoKα in a panel of human breast cancer cell lines. (A) Determination of
ChoKα expression by Western blot confirms elevated ChoKα protein found in MCF7-CK+ cells. (B) Conversion of 14C-choline to 14C-PC
follows the pattern expected from ChoKα expression levels in (A). (C–F) Dose-response curves comparing the effect of MN58b ( C, D) or
JAS239 (E, F) on 14C-choline phosphorylation in MCF7-EV and MCF7-CK+ cells (C, E) or MDA-MB-231 and 4175-Luc+ cells (D, F).
Values are reported as a percentage of the untreated EV group (for MCF7 cells) or untreated MDA-MB-231 group (for MDA-MB-231 and
4175-Luc+), and represent ± SEM for 3 separate experiments.

ChoKα, sequence (P35790 whole entry): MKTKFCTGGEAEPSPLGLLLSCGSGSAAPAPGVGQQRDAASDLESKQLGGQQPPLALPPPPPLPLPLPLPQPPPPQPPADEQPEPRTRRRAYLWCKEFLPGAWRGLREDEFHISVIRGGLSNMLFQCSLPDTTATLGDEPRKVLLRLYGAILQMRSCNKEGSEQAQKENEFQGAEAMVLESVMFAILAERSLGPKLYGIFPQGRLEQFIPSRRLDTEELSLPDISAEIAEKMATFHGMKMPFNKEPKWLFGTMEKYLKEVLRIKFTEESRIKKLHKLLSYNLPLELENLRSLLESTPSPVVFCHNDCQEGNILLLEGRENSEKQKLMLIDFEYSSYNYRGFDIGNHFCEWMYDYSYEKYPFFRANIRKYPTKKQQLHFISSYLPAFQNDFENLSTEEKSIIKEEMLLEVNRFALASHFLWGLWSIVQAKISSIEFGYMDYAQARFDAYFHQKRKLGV

Molecule	Tumor volume compared to control animals [1]	Change in tumor tCho compared to control (MRS) [2]	Tumor volume between pre- and post-treatment scans (MRI) [2]	PUFA resonances (measure of tumor apoptosis) [2]	Caspase-3 levels [3]	Cell density (H&E) [3]	Percentage of Ki67-positive cells [3]	IC50 ([4]; 4175-Luc+ cells)	IC50 ([4]; MCF7-CK+ cells)	IC50 ([4]; MCF7-EV cells)	IC50 ([4]; MDA-MB-231 cells)
CC1(C)C(=C/C=C/C=C/C=C/C2=[N+](CCO)c3ccccc3C2(C)C)N(CCO)c2ccccc21 [JAS239]	significantly smaller tumor volumes	reduce tCho to noise levels	static	increased	higher caspase-3 levels	significant reduction in cell density	significantly reduced	9.89 ± 0.24 µM	10.3 ± 2.48 µM	11.1 ± 5.64 µM	9.92 ± 0.22 µM
MN58b [reference compound]	significantly smaller tumor volumes	Significant reductions in tCho	static	increased	higher caspase-3 levels	significant reduction in cell density	significantly reduced	4.59 ± 0.55 µM	2.36 ± 0.28 µM	3.85 ± 0.42 µM	4.36 ± 1.37 µM

— publication PMC5369982, “Near infrared fluorescent imaging of choline kinase alpha expression and inhibition in breast tumors” (Oncotarget, 2017)
